This data set in a line: Solubility of S-2367 in water (Japanese Pharmacopoeia, Dissolution Test, Second Solution). The class given is physicochemical. To be noted: 37 °C, pH 6.8, aqueous buffer. The text has this:
A particularly preferable compound is trans-N-(5-trifluoromethylpyridin-2-yl)-4-(tertiarybutylsulfonylamino)cyclohexanecarboxamide (S-2367). The compound is a crystal under a room temperature.
The NPYY5 receptor antagonist of the present invention is not particularly limited as far as it is a drug which can be orally administered, but is preferably a drug having low solubility in water, so-called poorly water-soluble drug.

Converted amounts (≈) assume the structure as drawn.

By solubility is commonly meant how much of the substance goes into solution per volume. Read a low solubility as little dissolved substance.

With `CC(C)(C)S(=O)(=O)N[C@H]1CC[C@H](C(=O)Nc2ccc(C(F)(F)F)cn2)CC1` [Example S-2367, trans-N-(5-trifluoromethylpyridin-2-yl)-4-(tertiarybutylsulfonylamino)cyclohexanecarboxamide], the solubility is roughly 3.5 µg/mL (≈ 8.59 µM).

These data come from patent US20100240711A1, “SOLID PREPARATION COMPRISING NPYY5 RECEPTOR ANTAGONIST” (SHIONOGI & CO., LTD., priority 2007, published 2010).
